Paper PMC8597734 (Antimicrobial Agents and Chemotherapy, 2021)
In brackets after ≈: the same amount, converted by molar mass. Like-named read-outs stand apart in the source and are kept apart here.

Experiments:
[1] = tested on: anaerobic, nonreplicating M. abscessus Bamboo; assay: MBC determination under anaerobic conditions; type: cell-based, Mycobacterium abscessus; conditions: 48 h drug exposure
[2] = tested on: M. abscessus subsp. abscessus M199; assay: microbe, parasite or virus in culture; type: cell-based, Mycobacterium abscessus; conditions: Mycobacteroides abscessus, 72 h
[3] = tested on: M. abscessus subsp. abscessus M9; assay: microbe, parasite or virus in culture; type: cell-based, Mycobacterium abscessus; conditions: Mycobacteroides abscessus, 72 h
[4] = tested on: M. intracellulare ATCC 13950; assay: microbe, parasite or virus in culture; type: cell-based; conditions: Mycobacterium intracellulare, ATCC13950, 96 h
human serum albumin = biological target: T1, human serum albumin (Homo sapiens, UniProt P02768); assay: Drug binding to human serum albumin (HSA HPLC column); type: in vitro ADME; conditions: immobilized human serum albumin HPLC column, pH 7.4, read-out: Protein binding (converted)
T1 construct: purchased Chiral Technologies Ltd., France

[5] = tested on: M. abscessus subsp. abscessus K21; assay: M. abscessus mouse infection model; type: in vivo, Mycobacterium abscessus; conditions: NOD SCID mice, intranasal infection, 400 mg/kg oral once daily for 10 days; statistically significant
Protocol: In vivo efficacy determinations were carried out as described previously, using 8-week-old female NOD.CB17-Prkdc^scid/NCrCrl (NOD SCID) mice (Charles River Laboratories) and the M. abscessus subsp. abscessus K21 strain ([48]). Briefly, anesthetized animals were infected by intranasal delivery of ∼10^6 CFU of M. abscessus subsp. abscessus K21. Acute infection was achieved within 1 day. Drugs or the vehicle control was administered to NOD SCID mice once daily for 10 consecutive days by oral gavage, starting from 1 day postinfection. Clarithromycin was formulated in 0.4% methyl cellulose–sterile water and administered at a dose of 250 mg/kg. […] EC/11716 was formulated in 0.4% methyl cellulose–sterile water and administered at 400 mg/kg. All mice were euthanized 24 h after the last dose (11 days postinfection), and their lungs and spleen were aseptically removed prior to homogenization. The bacterial load in these organs was determined by plating serial dilutions of the organ homogenates onto Middlebrook 7H11 agar (BD Difco) supplemented with 0.2% (vol/vol) glycerol and 10% (vol/vol) OADC. The agar plates were incubated for 5 days at 37°C prior to counting of colonies. All studies were conducted in accordance with the GSK Policy on the Care, Welfare and Treatment of Laboratory Animals and were reviewed the Institutional Animal Care and Use Committee either at GSK or by the ethical review process at the institution where the work was performed. All experiments involving live animals were approved by the Institutional Animal Care and Use Committee of the Center for Discovery and Innovation, Hackensack Meridian Health.

[6] = tested on: M. abscessus Bamboo RM2 (GyrA D91N); assay: microbe, parasite or virus in culture; type: cell-based, Mycobacterium abscessus
M. avium 11 = assay: microbe, parasite or virus in culture; type: cell-based; conditions: Mycobacterium avium, 11, 96 h
[7] = Mouse oral pharmacokinetics; type: in vivo; conditions: for concentration at 24 h / AUC(0-t) / half-life: female; for concentration at 24 h: CD-1, mouse, below limit of quantitation (LOQ), read-out: plasma concentration at the 24h time point; for AUC(0-t) / half-life: mouse
Protocol: All animal studies were ethically reviewed and carried out in accordance with the Institutional Animal Care and Use Committee of Hackensack Meridian Health. Six-week-old CD-1 female mice (20–25 g) were used in pharmacokinetic studies. Groups of 3 mice received a single oral dose of EC/11716 formulated in 0.4% methylcellulose, at either 50, 200 or 400 mg/kg. Aliquots of 20 μl of blood were collected from the lateral tail vein by serial puncture from each mouse at 0.5, 1, 3, 5, 7 and 24h post dose in K2EDTA tubes. Plasma was recovered after centrifugation and stored at −80°C until analyzed by high pressure liquid chromatography coupled to tandem mass spectrometry.
Neat 1 mg/ml DMSO stocks of EC/11716 were serial diluted in 50/50 Acetonitrile water to create standard curves and quality control spiking solutions. Standards and QCs were created by adding 10μls of spiking solutions to 90μls of drug free plasma (CD-1 K2EDTA Mouse, Bioreclamation IVT). 10μls of control, standard, QC, or study sample were added to 100 μl of Acetonitrile/Methanol 50/50 protein precipitation solvent containing 10 ng/ml of the internal standard Verapamil (Sigma-Aldrich). Extracts were vortexed for 5 min and centrifuged at 4000 RPM for 5 min. 75 μl of supernatant was transferred for HPLC-MS/MS analysis and diluted with 75 μl of Milli-Q deionized water.
LC-MS/MS analysis was performed on a Sciex Applied Biosystems Qtrap 6500+ triple-quadrupole mass spectrometer coupled to a Shimadzu Nexera X2 UHPLC system to quantify each drug in plasma. Chromatography was performed on a Phenomenex Luna Omega column (2.1 × 100 mm; particle size, 3 μm) using a reverse phase gradient. Milli-Q deionized water with 0.1% formic acid was used for the aqueous mobile phase and 0.1% formic acid in acetonitrile for the organic mobile phase. Multiple-reaction monitoring of parent/daughter transitions in electrospray positive-ionization mode was used to quantify the analytes. The following MRM transitions were used for EC/11716 (458.09/203.10) and Verapamil (455.40/165.00). Sample analysis was accepted if the concentrations of the quality control samples were within 20% of the nominal concentration. Data processing was performed using Analyst software (version 1.6.2; Applied Biosystems Sciex).

[8] = tested on: M. abscessus subsp. massiliense CCUG 48898T; assay: microbe, parasite or virus in culture; type: cell-based, Mycobacterium abscessus; conditions: Mycobacteroides abscessus, 72 h
[9] = tested on: M. abscessus subsp. abscessus M404; assay: microbe, parasite or virus in culture; type: cell-based, Mycobacterium abscessus; conditions: Mycobacteroides abscessus, 72 h
[10] = tested on: M. abscessus Bamboo RM1 (GyrA M129K); assay: microbe, parasite or virus in culture; type: cell-based, Mycobacterium abscessus
[11] = tested on: M. abscessus Bamboo RM4 (GyrA D91G); assay: microbe, parasite or virus in culture; type: cell-based, Mycobacterium abscessus
[12] = tested on: M. tuberculosis H37Rv ATCC 27294; assay: microbe, parasite or virus in culture; type: cell-based; conditions: Mycobacterium tuberculosis, 168 h
[13] = mice, oral 400 mg/kg, from PK profiles and potency data

T1 sequence (P02768 25-609): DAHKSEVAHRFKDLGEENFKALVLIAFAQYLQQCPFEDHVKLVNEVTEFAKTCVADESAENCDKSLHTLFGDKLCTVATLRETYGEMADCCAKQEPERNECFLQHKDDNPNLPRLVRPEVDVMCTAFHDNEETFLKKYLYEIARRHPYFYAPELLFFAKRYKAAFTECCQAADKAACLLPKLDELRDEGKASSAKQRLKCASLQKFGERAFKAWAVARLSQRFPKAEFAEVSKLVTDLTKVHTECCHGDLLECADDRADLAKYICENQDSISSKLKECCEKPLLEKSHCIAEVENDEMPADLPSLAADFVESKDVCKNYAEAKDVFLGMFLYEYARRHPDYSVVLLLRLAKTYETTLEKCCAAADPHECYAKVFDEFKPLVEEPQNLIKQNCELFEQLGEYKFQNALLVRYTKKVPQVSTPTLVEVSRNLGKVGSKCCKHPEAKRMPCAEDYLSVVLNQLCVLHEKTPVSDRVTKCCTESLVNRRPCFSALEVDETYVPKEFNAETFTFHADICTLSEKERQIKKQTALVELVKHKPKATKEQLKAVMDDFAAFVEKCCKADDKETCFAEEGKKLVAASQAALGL

**Q.** Which results are given for COc1cnc2ccc(=O)n(CCN3CCC(NCc4cnc(CO)c(Cl)c4)CC3)c2c1 [EC/11716]?
**A.** MBC [1]: >100 µM; MBC ([1]; Mycobacteroides abscessus): > 100 µM; MIC [2]: 3.8 µM (≈ 1.74 µg/mL); MIC [3]: 2.9 µM (≈ 1.33 µg/mL); MIC [4]: 3.3 µM (≈ 1.51 µg/mL); fraction unbound (human serum albumin): 0.505; reduction in lung CFU [5]: 1 log; MIC [6]: >100 µM; MIC ([6]; Mycobacteroides abscessus): > 100 µM; MIC (M. avium 11): 1.1 µM (≈ 0.504 µg/mL); frequency of resistance (M. abscessus Bamboo): 1.8 × 10^−8 /CFU; DNAUC[0-24]_50 mg/kg ([7]; CD-1 mice, oral 50 mg/kg, dose-normalized AUC, mean (SD)): 58 (16) ng*h/ml per mg/kg; Tmax_50 mg/kg ([7]; CD-1 mice, oral 50 mg/kg, range of values): 0.5 to 1.0 h; DNAUC[0-24]_200 mg/kg ([7]; CD-1 mice, oral 200 mg/kg, dose-normalized AUC, mean (SD)): 167 (24) ng*h/ml per mg/kg; Tmax_200 mg/kg ([7]; CD-1 mice, oral 200 mg/kg, range of values): 0.5−1.0 h; DNAUC[0-24]_400 mg/kg ([7]; CD-1 mice, oral 400 mg/kg, dose-normalized AUC, mean (SD)): 202 (8) ng*h/ml per mg/kg; Tmax_400 mg/kg ([7]; CD-1 mice, oral 400 mg/kg, range of values): 0.5 to 1.0 h; Cmax_50 mg/kg ([7]; CD-1 mice, single oral dose 50 mg/kg, plasma, mean (SD)): 632 (430) ng/ml; Cmax_200 mg/kg ([7]; CD-1 mice, single oral dose 200 mg/kg, plasma, mean (SD)): 7,177 (618) ng/ml; Cmax_400 mg/kg ([7]; CD-1 mice, single oral dose 400 mg/kg, plasma, mean (SD)): 16,767 (8,281) ng/ml; concentration at 24 h ([7]; plasma, mice, oral 50 mg/kg): < 20 ng/mL; concentration at 24 h ([7]; plasma, mice, oral 200 mg/kg): < 20 ng/mL; AUC(0-t) ([7]; plasma, CD-1 mice, oral 50 mg/kg, mean (SD), read-out: AUC[0-24]_50 mg/kg): 2900 ng·h/mL; half-life ([7]; plasma, CD-1 mice, oral 50 mg/kg, mean (SD), read-out: Elimination T1/2 _50 mg/kg (converted)): 2.7 h; AUC(0-t) ([7]; plasma, CD-1 mice, oral 200 mg/kg, mean (SD), read-out: AUC[0-24]_200 mg/kg): 33400 ng·h/mL; half-life ([7]; plasma, CD-1 mice, oral 200 mg/kg, mean (SD), read-out: Elimination T1/2 _200 mg/kg (converted)): 1.7 h; AUC(0-t) ([7]; plasma, CD-1 mice, oral 400 mg/kg, mean (SD), read-out: AUC[0-24]_400 mg/kg): 80700 ng·h/mL; half-life ([7]; plasma, CD-1 mice, oral 400 mg/kg, mean (SD), read-out: Elimination T1/2 _400 mg/kg (converted)): 3.6 h; time above MIC of M. abscessus K21 planktonic cultures [7, 13]: 67%; time above MIC of M. abscessus biofilms [7, 13]: greater than 70%; MIC [8]: 4.7 µM (≈ 2.15 µg/mL); MIC [9]: 2.6 µM (≈ 1.19 µg/mL); MIC [10]: >100 µM; MIC ([10]; Mycobacteroides abscessus): > 100 µM; MIC [11]: >100 µM; MIC ([11]; Mycobacteroides abscessus): > 100 µM; MIC [12]: 0.38 µM (≈ 0.174 µg/mL)
